Measurements taken from patent publication US20250313532A1, “ALDH2 INHIBITORS AND METHODS OF USE THEREOF” (UNIVERSITY OF MARYLAND, BALTIMORE, priority 2022, published 2025).
Like-named read-outs stand apart in the source and are kept apart here.

Legend:
ALDH2 = target: T1, ALDH2 (Homo sapiens, UniProt P05091); test: Fluorescence-based ALDH2 enzymatic inhibition assay (NADH fluorescence); assay type: biochemical; details: for IC50: ALDH2 50 nM, formaldehyde 300 μM, NAD+ 1.2 mM, pH 7.4, 25° C.; for fold more potent than hit CB-01 (ALDH2 IC50): relative to parent screening hit CB-01
T1 construct: purchased Abcam 87415
T1 sequence (P05091 18-517): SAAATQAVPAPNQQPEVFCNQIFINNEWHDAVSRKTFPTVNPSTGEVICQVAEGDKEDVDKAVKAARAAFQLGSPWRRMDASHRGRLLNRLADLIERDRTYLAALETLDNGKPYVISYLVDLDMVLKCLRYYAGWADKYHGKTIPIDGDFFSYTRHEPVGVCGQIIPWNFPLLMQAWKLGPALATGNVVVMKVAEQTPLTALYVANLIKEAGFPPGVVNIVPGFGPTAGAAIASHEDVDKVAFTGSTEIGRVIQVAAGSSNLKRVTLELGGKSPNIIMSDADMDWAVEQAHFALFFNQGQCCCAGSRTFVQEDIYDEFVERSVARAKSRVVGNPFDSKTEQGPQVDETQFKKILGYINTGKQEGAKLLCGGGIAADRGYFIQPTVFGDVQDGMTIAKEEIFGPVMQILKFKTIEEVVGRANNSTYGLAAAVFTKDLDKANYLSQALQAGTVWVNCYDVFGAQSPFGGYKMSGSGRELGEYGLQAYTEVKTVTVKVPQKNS
Protocol: Fluorescence-based ALDH2 assay was used to test the potencies of new compounds.
IC50 values of synthesized compounds is tested by an ALDH2 enzymatic assay obtained by modifying a published protocol, for example by Yang et al. This assay measures an inhibitor-caused fluorescence decrease of the NADH generated from the ALDH2 catalytic reaction. Inhibitor binding causes a decrease in the production of NADH that affects the ability of the enzyme to turnover its substrate aldehyde and decreased the production of carboxylic acid. The assay components include: ALDH2 (50 nM) (Abcam #87415), substrate formaldehyde (300 μM), NAD^+ (1.2 mM), and testing compound in phosphate buffer (50 mM, pH 7.4) with 0.01% Tween 20 at 25° C. The assay is performed in black 384-well plates (40 L total volume; Costar). […] The negative control contains the enzyme, substrate solution in phosphate buffer without the addition of the substrate formaldehyde. Measurements are performed 10 min after adding the testing compound by excitation of NAD^+ at 340 nm, which leads to fluorescence emission at 450 nm. The IC50 values of testing compounds is determined from experiments performed in a concentration-dependent manner of testing compounds by fitting the data to a sigmoidal dose-response equation in GraphPad Prism. All experiments are performed in triplicate.
An HTS ALDH2 enzymatic assay is established and can be used to measure the inhibitory potency of compounds. […] The assay was used for temperature, pH value, and concentration of ALDH2 in the 384-well format; several independent test runs were performed to assess assay parameters.
To determine the performance of the established ALDH2 activity assay under HTS conditions, a pilot screen of 980 compounds was performed. Compounds were tested in triplicate at concentrations ranging from 10 nM to 50 μM (0.1% DMSO). Raw assay data were analyzed using DataWarrior software. The IC50 value of each compound was calculated. “High Control” represents wells from the same plate containing ALDH2 (50 nM), formaldehyde (300 μM), and NAD^+ (1.2 mM) in phosphate buffer (50 mM, pH 7.4) with 0.01% Tween 20 at 25° C. and DMSO (0.1%) while “Low controls” correspond to the wells from the same plate containing ALDH2 (50 nM) treated with and NAD^+ (1.2 mM) in phosphate buffer (50 mM, pH 7.4) with 0.01% Tween 20 at 25° C. and DMSO (0.1%). […] Two values were subsequently calculated: 1) the average IC50 values of all the compounds tested in the screen, and 2) three times the standard deviation. The sum of these two values was used as the cutoff parameter.

[1] = test system: primary human hepatocytes; test: Cytotoxicity / cell viability in primary human hepatocytes (CCK-8); assay type: cell-based; details: concentration up to 200 uM, 24 h
Protocol: Initial cell viability assays are performed on the YA7068 and new analogs on primary human hepatocytes (see letter from Prof. Hongbing Wang) using the commercially available CellTiter-Glo® 2.0 (Promega) as described by the manufacturer. […] These studies allow us to assess if the compounds are non-toxic for human liver cells.
Cytotoxicity studies of YA7068 to primary human hepatocytes were performed.
Human primary hepatocytes were maintained in DMEM medium with 10% fetal bovine serum (FBS) and 1% PS (penicillin/streptomycin). The cells were incubated in 37° C. incubator with 5% CO2. The number of viable cells was determined using the CCK-8 assay. Briefly, cells were seeded at a density of 5000 cells/well in 96-well plates, a nd were treated in triplicate with different concentrations of individual compounds (0, 0.1, 0.5, 1, 5, 10, 25, 50, 100, and 200 PM) for 24 h. Then, 10 μL of CCK-8 working solution was added to each well and incubated for appropriate times (0.5-4 h) before subjecting to a microplate reader for OD detection at 450 nm.

OATP1B1 = target: T2, OATP1B1 (Homo sapiens, UniProt Q9Y6L6); test: OATP1B1-mediated uptake, OATP1B1-transfected vs wild-type HEK293 cells; assay type: in vitro ADME
T2 construct: expressed in transfected cells; host or cells: HEK293
T2 sequence (Q9Y6L6 1-691): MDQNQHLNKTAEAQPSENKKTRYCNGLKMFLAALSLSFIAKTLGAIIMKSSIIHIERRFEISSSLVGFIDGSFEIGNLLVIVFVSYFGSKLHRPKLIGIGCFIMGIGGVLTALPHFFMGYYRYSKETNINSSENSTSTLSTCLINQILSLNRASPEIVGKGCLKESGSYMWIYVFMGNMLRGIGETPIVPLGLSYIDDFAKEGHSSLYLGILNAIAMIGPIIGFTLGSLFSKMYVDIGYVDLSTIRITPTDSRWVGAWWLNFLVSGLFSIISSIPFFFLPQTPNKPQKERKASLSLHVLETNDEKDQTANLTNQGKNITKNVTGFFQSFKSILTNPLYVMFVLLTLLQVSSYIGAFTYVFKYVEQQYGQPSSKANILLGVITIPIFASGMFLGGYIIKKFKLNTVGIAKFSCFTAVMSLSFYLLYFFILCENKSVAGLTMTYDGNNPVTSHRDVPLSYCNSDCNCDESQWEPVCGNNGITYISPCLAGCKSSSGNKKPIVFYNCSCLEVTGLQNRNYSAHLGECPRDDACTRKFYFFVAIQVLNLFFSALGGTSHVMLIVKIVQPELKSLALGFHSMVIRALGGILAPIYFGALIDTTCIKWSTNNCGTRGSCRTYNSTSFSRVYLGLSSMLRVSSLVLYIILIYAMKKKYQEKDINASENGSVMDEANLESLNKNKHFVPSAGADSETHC
Protocol: The uptake of inhibitor YA7068 by the liver-specific transporter OATP1B1 has been evaluated using a protocol similar to the one in a recent study on OCT transporters by Obianom et al. After incubating OATP1B1-transfected HEK293 cells with the compound, the intracellular concentrations of YA7068 was >2.5-fold higher than that after incubating the wild-type HEK293 cells with the compound (FIG. 3D). In sum, compound YA7068 is developed as a novel liver-targeting potent inhibitor of ALDH2.
The OATP1-mediated uptake of synthesized compounds is assessed by an LC-MS-based method employing the OATP1B1- or OATP1B3-expressing HEK293 cells. Briefly, cells are washed twice with uptake buffer to remove floating cells. Compounds diluted in the uptake buffer are replaced in the wells and incubated for 10 min. For screening of compounds at a single concentration and one-time point, the cells are incubated with 100 μM of testing compounds. In each experiment, pitavastatin is used as a positive control. The incubation is stopped by removing the solution and adding […] of ice-cold uptake buffer. The cells are washed twice with the buffer. After washing, 200 μL of lysing solution (1:1 MeOH/H2O) containing internal standard is added. […] Aliquots of the supernatant are transferred to new tubes and drug concentration is quantified by LC-MS/MS. […]

Structure (SMILES)	IC50 (ALDH2; read-out: IC50, inhibition of the enzymatic activity of ALDH2)	fold more potent than hit CB-01 (ALDH2 IC50) (ALDH2)	cytotoxicity for primary human hepatocytes [1]	intracellular concentration, OATP1B1-transfected HEK293 cells vs wild-type HEK293 cells (OATP1B1; after incubating cells with the compound)	substrate for hepatocyte-specific OATP1B1 (OATP1B1; result in words)	IC50 (ALDH2; read-out: IC50, ALDH2 enzymatic assay)
CS(=O)(=O)Nc1ccc(-c2cc3ccc(OCc4cccc(C(=O)O)c4)cc3oc2=O)cc1 [YA7068, 3-(((3-(4-(Methylsulfonamido)phenyl)-2-oxo-2H-chromen-7-yl)oxy)methyl)benzoic acid]	0.062 µM	> 170 fold	did not exhibit any cytotoxicity	> 2.5 fold	functions as a substrate	–
CS(=O)(=O)Nc1ccc(-c2cn3cc(C(=O)O)sc3n2)cc1 [YA7241, 6-(4-(Methylsulfonamido)phenyl)imidazo[2,1-b]thiazole-2-carboxylic acid]	–	5.8 fold	–	–	–	1.9 µM
